Measurements published in patent publication US12168086B2, “Hemostatic devices and methods of use” (priority 2016, dated 2024).

Experiments:
[1] = system: myofibroblast formation; details: Ajmal et al. (2003); cited from earlier work
[2] = PBS pH 7.4 without TXA, with TXA 0.05 mg/mL or 5 mg/mL, over 25 hours
[3] = time to reach plasma concentrations; details: in vivo
[4] = system: blood clotting; details: in vitro, 1.2 mg of TXA alone

Compound: O=S(=O)([O-])CCS.[Na+] [MESNA, sodium 2-mercaptoethane sulfonate]
- myofibroblast formation [1]: diminish myofibroblast formation

Compound: CO[C@H]1/C=C/O[C@@]2(C)Oc3c(C)c(O)c4c(O)c(c(/C=N/N5CCN(C)CC5)c(O)c4c3C2=O)NC(=O)/C(C)=C\C=C\[C@H](C)[C@H](O)[C@@H](C)[C@@H](O)[C@@H](C)[C@H](OC(C)=O)[C@@H]1C [rifampin]
- elution rate from p22-27.5 polymer [2]: not affected by the presence of TXA

Compound: NC[C@H]1CC[C@H](C(=O)O)CC1 [tranexamic acid]
- time to reach plasma concentrations [3]: 5 to 15 min
- time to induce blood clotting [4]: about 19 minutes
